Three molecules from patent US7304052B2, “Substituted homopiperidinyl benzimidazole analogues as fundic relaxants” (Janssen Pharmaceuitca N.V., priority 1999, dated 2007) can be followed below.

For the test, the system named is gastric tone (fundus of the stomach). Description: Gastric tone measured by an electronic barostat in conscious dogs. In kind it is in vivo, dog. Particulars: mean maximal change in intragastric volume on relaxation of the fundus, 1 hour after S.C. administration, 0.63 mg/kg, conscious female beagle dogs, barostat at 2 mmHg. Here is the method:
Gastric tone cannot be measured by manometric methods. Therefore an electronic barostat was used. This allows the study of the physiological pattern and regulation of gastric tone in conscious dogs and the influence of test-compounds on this tone.
The barostat consists of an air injection system which is connected by a double-lumen 14-French polyvinyl tube to an ultrathin flaccid polyethylene bag (maximal volume: ±700 ml). Variations in gastric tone were measured by recording changes in the volume of air within an intragastric bag, maintained at a constant pressure. The barostat maintains a constant pressure (preselected) within a flaccid air-filled bag introduced into the stomach, changing the volume of air within the bag by an electronic feedback system.
Thus, the barostat measures gastric motor activity (contraction or relaxation) as changes in intragastric volume (decrease or increase resp.) at a constant intragastric pressure. The barostat consists of a strain gauge linked by an electronic relay to an air injection-aspiration system Both the strain gauge and the injection system are connected by means of double-lumen polyvinyl tube to an ultrathin polyethylene bag. A dial in the barostat allows selection of the pressure level to be maintained within the intragastric bag.
Female beagle dogs, weighing 7-17 kg, were trained to stand quietly in Pavlov frames. They were implanted with a gastric cannula under general anaesthesia and aseptic precautions. After a median laparotomy, an incision was made through the gastric wall in longitudinal direction between the greater and the lesser curve, 2 cm above the nerves of Latarjet. The cannula was secured to the gastric wall by means of a double purse string suture and brought out via a stub wound at the left quadrant of the hypochondrium Dogs were allowed a recovery period of two weeks.
At the beginning of the experiment, the cannula was opened in order to remove any gastric juice or food remnants. If necessary, the stomach was cleansed with 40 to 50 ml lukewarm water. […]
As to `c1ccc(CN2CCCC(c3nc4ncccc4[nH]3)CC2)cc1` (racemic) [Compound 69, (±)-2-[hexahydro-1-(phenylmethyl)-1H-azepin-4-yl]-1H-imidazo[4,5-b]pyridine], the “Maximum change in volume (mean)” value was found to be 87 mL.

Turning to `c1ccc(CN2CCCC(c3nc4ncccc4[nH]3)CC2)cc1` (single isomer, unassigned; (-)) [Compound 80, (−)-2-[hexahydro-1-(phenylmethyl)-1H-azepin-4-yl]-1H-imidazo[4,5-b]pyridine], the “Maximum change in volume (mean)” value is 55 mL.

With `c1ccc(CN2CCCC(c3nc4ncccc4[nH]3)CC2)cc1` (single isomer, unassigned; (+)) [Compound 81, (+)-2-[hexahydro-1-(phenylmethyl)-1H-azepin-4-yl]-1H-imidazo[4,5-b]pyridine], the “Maximum change in volume (mean)” value worked out at 183 mL.
